Experimental findings from patent publication US12421249B2, “Inhibitors of APOL1 and methods of using same” (Vertex Pharmaceuticals Incorporated, priority 2020, dated 2025) are described below.

For orientation: IC90 means the point of the concentration-response curve where the effect stands at 90%.

Where two headings read alike, the source gives them in different places. A value given as a limit tells only on which side of the number the result lay.

The target in assay [1] is T1, APOL1 G1 (Homo sapiens, UniProt O14791, I384M/S342G).
T1 sequence (O14791 28-398 S342G/I384M): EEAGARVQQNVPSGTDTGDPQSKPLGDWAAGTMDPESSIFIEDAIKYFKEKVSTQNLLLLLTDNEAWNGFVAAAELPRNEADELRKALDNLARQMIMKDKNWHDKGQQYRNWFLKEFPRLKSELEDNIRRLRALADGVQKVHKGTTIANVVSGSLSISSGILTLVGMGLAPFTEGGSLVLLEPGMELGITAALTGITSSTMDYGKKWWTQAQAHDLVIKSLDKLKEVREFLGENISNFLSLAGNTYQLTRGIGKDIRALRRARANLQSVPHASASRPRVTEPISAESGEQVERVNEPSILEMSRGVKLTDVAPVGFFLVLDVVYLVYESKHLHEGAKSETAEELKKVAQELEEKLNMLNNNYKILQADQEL
As to the kind of experiment: Trypanosoma brucei brucei Lysis Assay Using APOL1 Recombinant Protein (AlamarBlue viability readout). In kind it is cell-based. The settings on record: for IC50: IP50 = IC50 for cell proliferation, read-out: Trypanosome Assay IP50; for Emax: read-out: Trypanosome Assay Max Activity (%). The text has this: Trypanosoma brucei brucei is a blood stream parasite to which human, gorillas, and baboons are immune due to the presence of the APOL1 protein in their HDL particles. The protein is uptaken by the parasite via the TbHpHb receptor located in its flagellar pocket and is bonded by the Hpr protein contained in the HDL particles which triggers the receptor endocytosis by the parasite.
Following endocytosis, the formed vesicle containing the HDL particle matures from early to late endosome, and subsequently to lysosome. The concomitant pH change in the lumen of the vesicle triggers the insertion of the APOL1 protein into the membrane of the late endosome/lysosome and hereby triggers lysosomal membrane permeabilization and as a further downstream event, trypanosome lysis. Trypanosoma brucei brucei is sensitive to lysis by all three APOL1 variants (G0, G1, and G2).
The Trypanosoma brucei brucei lysis assay is a lysis assay of the parasite using recombinant APOL1 protein variant followed by a fluorescent detection method of viability by the addition of AlamarBlue reagent to the assay well, a general metabolic redox indicator (AlamarBlue assay).
Briefly, the AlamarBlue active compound, resazurin, a blue, water soluble, non-toxic and cell permeable molecule, which can be followed by absorbance, is reduced by various metabolic pathways into resorufin, a red compound which can be followed by either absorbance or fluorescence. The assay allows the calculation of the percent viability (percent of living Trypanosomes remaining in each well) at the end of a lysis relative to the untreated condition by interpolation of fluorescent values (FLU) on a standard curve with a known amount of seeded trypanosome/well.
Trypanosoma brucei brucei (ATCC, Cat. No. PRA-382)
• Lister 427 VSG 221 bloodstream form.
Equipment • E1-Clip Tip pipette 12 channel adjustable 2-125 μL, Cat. No. 4672070BT • ThermoFisher MultiDrop 384, Cat. No. 5840300 • Multidrop • Agilent Bravo, Cat. No. G5409A • Bravo • SpectraMax M5 Assay Ready Plates (ARPs) • ARPs comes in two formats: • […] final top concentration with a 2.5 fold dilution down. • […] final top concentration with a 3 fold dilution down. • Both have a 10 point Dose response. • 0.1% DMSO final in the Black Assay Plate. • Compounds are diluted 1000 fold in the Black Assay Plate. • Each plate is designed for 14 compounds in duplicate. • In the final Black Assay Plate: • Column 1: Media only (no APOL1) (100% viable) • Column 2-23: 0.05 μg/mL APOL1 (˜EC90) (10% viable with APOL1) • Column 24: 0.1 μg/mL APOL1 (EC100) (Approx. […] Step 2, Day 4 • Centrifuge at 800×g for 5 minutes at room temperature. • Resuspend in 1 mL media. • Make a 1:25 fold dilution (10 μL/240 μL media). • Count on a hemocytometer (after adding parasites). • Let sit for 1-2 minutes for the parasites to settle. • Count should be approximately 100 viable motile parasites/16 grid or approximately 25×10^6 parasites/flask. • Passage the parasites by adding 1×10^6 parasites/T75 flask in 20 mL media. • Passage the parasites by adding 2.33×10^6 parasites/T175 flask in 46.6 mL media. • For every T75 flask should make enough for approximately 1.5×384 well assay plates. • For every T175 flask should make enough for approximately 3.8×384 well assay plates. Step 3, Day 6 • Centrifuge at 800×g for 5 minutes. • Resuspend in 3 mL assay media (No phenol red, no FBS) per 75 starting flask. • Resuspend in 7 mL assay media (No phenol red, no FBS) per 175 flask • Make a 1:25 fold dilution. • Count by hemocytometer. • Every T75 flask set up should have approximately 75×10^6 parasites/flask (verify doubling time=8.7 hours±1 hour). • Every T175 flask set up should have approximately 175×10^6 parasites/flask (verify doubling time=8.7 hours±1 hour). • Require 46×10^6 parasites per 384 well plate (at 120,000 parasites per well). […]

The target of assay [2] is T2, APOL1 (Homo sapiens, UniProt O14791).
T2 sequence (O14791 1-398 S342G/I384M): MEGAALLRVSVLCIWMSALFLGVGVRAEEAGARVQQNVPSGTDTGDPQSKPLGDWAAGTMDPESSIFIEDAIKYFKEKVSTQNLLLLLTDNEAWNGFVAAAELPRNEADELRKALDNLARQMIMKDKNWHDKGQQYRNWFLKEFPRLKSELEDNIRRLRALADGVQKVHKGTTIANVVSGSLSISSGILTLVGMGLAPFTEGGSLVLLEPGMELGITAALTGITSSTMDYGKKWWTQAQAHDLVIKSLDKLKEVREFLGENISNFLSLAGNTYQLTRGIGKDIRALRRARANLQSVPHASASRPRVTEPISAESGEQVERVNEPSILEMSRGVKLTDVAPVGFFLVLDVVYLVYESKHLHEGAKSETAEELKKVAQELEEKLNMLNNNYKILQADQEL
As to the kind of experiment: Multi-Tox Assay (MultiTox-Fluor Multiplex Cytotoxicity Assay in tet-inducible APOL1 T-REx-HEK293 cells; Table 46 does not say which APOL1 variant G0/G1/G2). In kind it is cell-based. The settings on record: APOL1 variant not given; for IC50: IP50 = IC50 for cell proliferation.

Consider `COc1ccc(C2CC3(CC(C)N2)OCCc2cc(Cl)sc23)nn1` (mixture of isomers) [Compound 76], for which, in assay [1] (Trypanosome Assay), the IC50 is below 50 nM and the Emax is 106%. The compound also yielded an IC50 in assay [2] below 50 nM.

Consider `COc1cccc(C2CC3(CC(C)N2)OCCc2cc(Cl)sc23)n1` (mixture of isomers) [Compound 135], for which, in assay [1] (Trypanosome Assay), the IC50 is 50 to 500 nM and the Emax was found to be 94%. In assay [2], this compound had an IC50 of 50 to 500 nM.

Regarding `CC1CC2(CC(C)N1)OCCc1cc(Cl)sc12` (mixture of isomers) [Compound 194, 2-chloro-2′,6′-dimethyl-spiro[4,5-dihydrothieno[2,3-c]pyran-7,4′-piperidine]], the IC50 in assay [1] (Trypanosome Assay) and in assay [2] was 50 to 500 nM throughout. Further, the Emax in assay [1] is 117%.

Take `CC1CC2(CC(CO)N1)OCCc1cc(Cl)sc12` (mixture of isomers) [Compound 210, (2-chloro-6′-methyl-spiro[4,5-dihydrothieno[2,3-c]pyran-7,4′-piperidine]-2′-yl)methanol]: in assay [1] (Trypanosome Assay), the IC50 was above 500 nM and the Emax worked out at 104%. This compound yielded an IC50 in assay [2] above 500 nM.

As for `CC1CC2(CC(C3CC3)N1)OCCc1cc(Cl)sc12` (mixture of isomers) [Compound 211, (2S,6S)-2-chloro-2′-cyclopropyl-6′-methyl-spiro[4,5-dihydrothieno[2,3-c]pyran-7,4′-piperidine]], in assay [1] (Trypanosome Assay), the IC50 fell in the range of 50 to 500 nM and the Emax came out at 113%. In addition, in assay [2], the IC90 lay within 50 to 500 nM, the “Multi-Tox Assay Max Activity (%)” value was 99.6% and the IC50 was below 50 nM.

Take `CC1CC2(CC(C(C)C)N1)OCCc1cc(Cl)sc12` (mixture of isomers) [Compound 214]: in assay [1] (Trypanosome Assay), the IC50 lay in the range of 50 to 500 nM and the Emax is 109%. In assay [2], this compound showed an IC50 below 50 nM.

Turning to `CCC1CC2(CC(C)N1)OCCc1cc(Cl)sc12` (mixture of isomers) [Compound 215], in assay [1] (Trypanosome Assay), the IC50 lay in the range of 50 to 500 nM and the Emax is 112%. Also, the IC50 in assay [2] was below 50 nM.

With `CC1CC2(CC(C3CCOCC3)N1)OCCc1cc(Cl)sc12` (mixture of isomers) [Compound 216], the IC50 in assay [1] (Trypanosome Assay) and in assay [2] was 50 to 500 nM each time. Besides, in assay [1] (Trypanosome Assay), the Emax worked out at 104%.

On to `CC1CC2(CC(C3CC3)N1)OCCc1cc(Cl)sc12` (mixture of isomers) [Compound 217], for which, in assay [1] (Trypanosome Assay), the IC50 was below 50 nM and the Emax was 110%. In assay [2], this compound had an IC50 below 50 nM.

For the compound `CC1CC2(CC(C3CCC3)N1)OCCc1cc(Cl)sc12` (mixture of isomers) [Compound 218], in assay [1] (Trypanosome Assay), the IC50 was 50 to 500 nM and the Emax was determined as 111%. The compound also returned an IC50 in assay [2] below 50 nM.

With `CC1CC2(CC(c3cccnc3)N1)OCCc1cc(Cl)sc12` (racemic) [Compound 20, 2-chloro-2′-methyl-6′-(3-pyridyl)spiro[4,5-dihydrothieno[2,3-c]pyran-7,4′-piperidine]], the IC50 in assay [1] (Trypanosome Assay) and in assay [2] was below 50 nM each time. Further, the Emax in assay [1] worked out at 116%.

`C[C@H]1C[C@@]2(C[C@@H](c3cn(C)nn3)N1)OC[C@H](O)c1cc(Cl)sc12` [Compound 177, (2′S,4R,6′S,7S)-2-chloro-2′-methyl-6′-(1-methyltriazol-4-yl)spiro[4,5-dihydrothieno[2,3-c]pyran-7,4′-piperidine]-4-ol]: in assay [1] (Trypanosome Assay), the IC50 lay within 50 to 500 nM and the Emax came to 107%.

On to `C[C@H]1C[C@@]2(C[C@@H](c3cn(Cc4ncnc5[nH]ccc45)nn3)N1)OCC(F)(F)c1cc(Cl)sc12` [Compound 350], for which, in assay [2], the “Multi-Tox Assay Max Activity (%)” value was determined as 99.0% and the IC50 is below 50 nM.

Turning to `Cc1cc(C)nc(CCn2cc([C@@H]3C[C@]4(C[C@H](C)N3)OCC(F)(F)c3cc(Cl)sc34)nn2)c1` [Compound 351], in assay [2], the “Multi-Tox Assay Max Activity (%)” value was 98.0% and the IC50 was below 50 nM.

As for `C[C@H]1C[C@@]2(C[C@@H](c3cn(Cc4ccc(C#N)nc4)nn3)N1)OCC(F)(F)c1cc(Cl)sc12` [Compound 352], in assay [2], the “Multi-Tox Assay Max Activity (%)” value is listed as 99.0% and the IC50 was below 50 nM.

Take `Cc1noc(C)c1Cn1cc([C@@H]2C[C@]3(C[C@H](C)N2)OCC(F)(F)c2cc(Cl)sc23)nn1` [Compound 353]: in assay [2], the “Multi-Tox Assay Max Activity (%)” value amounted to 100.0% and the IC50 is below 50 nM.

Regarding `C[C@H]1C[C@@]2(C[C@@H](c3cn(CCOc4ccccc4F)nn3)N1)OCC(F)(F)c1cc(Cl)sc12` [Compound 354], in assay [2], the “Multi-Tox Assay Max Activity (%)” value is recorded as 99.0% and the IC50 lay within 50 to 500 nM.

In the case of `C[C@H]1C[C@@]2(C[C@@H](c3cn(Cc4ccc(S(C)(=O)=O)cc4)nn3)N1)OCC(F)(F)c1cc(Cl)sc12` [Compound 355], in assay [2], the “Multi-Tox Assay Max Activity (%)” value is on record as 98.0% and the IC50 was in the range of 50 to 500 nM.

As to `C[C@H]1C[C@@]2(C[C@@H](c3cn(CC(=O)N4CCCCC4)nn3)N1)OCC(F)(F)c1cc(Cl)sc12` [Compound 356], in assay [2], the IC90 fell in the range of 50 to 500 nM, the “Multi-Tox Assay Max Activity (%)” value was found to be 99.0% and the IC50 lay within 50 to 500 nM.

In the case of `C[C@H]1C[C@@]2(C[C@@H](c3cn(CC4(CO)CC4)nn3)N1)OCC(F)(F)c1cc(Cl)sc12` [Compound 357], in assay [2], the “Multi-Tox Assay Max Activity (%)” value was found to be 99.0% and the IC50 lay in the range of 50 to 500 nM.

For `C[C@H]1C[C@@]2(C[C@@H](c3cn(Cc4cnc5cnccn45)nn3)N1)OCC(F)(F)c1cc(Cl)sc12` [Compound 358], in assay [2], the “Multi-Tox Assay Max Activity (%)” value stood at 98.0% and the IC50 is below 50 nM.

Regarding `C[C@H]1C[C@@]2(C[C@@H](c3cn(CCCO)nn3)N1)OCC(F)(F)c1cc(Cl)sc12` [Compound 359], in assay [2], the “Multi-Tox Assay Max Activity (%)” value came out at 98.0% and the IC50 is below 50 nM.

Regarding `COc1ccc(Cn2cc([C@@H]3C[C@]4(C[C@H](C)N3)OCC(F)(F)c3cc(Cl)sc34)nn2)cn1` [Compound 360], in assay [2], the “Multi-Tox Assay Max Activity (%)” value is reported as 99.0% and the IC50 lay within 50 to 500 nM.
